Where two headings read alike, the source gives them in different places.
Experiments:
M. luteus ATCC9341 = test: Sensitivity test (agar dilution); type: cell-based, Micrococcus luteus; conditions: Micrococcus luteus, M. luteus ATCC9341
Procedure: (§1) The antibacterial activities were tested against various 18 bacteria (27 standard strains) which are representative bacteria caused clinically infectious disease (Staphylococcus aureus 3 strains, Staphylococcus epidermidis 1 strain, Micrococcus luteus 1 strain, Streptococcus pyogenes 1 strain, Enterococcus faecalis 1 strain, Enterococcus faecium 1 strain, Bacillus subtilis 1 strain, Escherichia coli 3 strains, Klebsiella pneumoniae 1 strain, Proteus mirabilis 1 strain, Proteus vulgaris 2 strains, Pseudomonas aeruginosa 3 strains, Serratia marcescens 2 strains, Enterobacter aerogenes 1 strain, Stenotrophomonas maltophilia 1 strain, Enterobacter cloacae 1 strain, Citrobacter freundii 1 strain, Moraxella catarrhalis 2 strains).
(§2) According to the standard method of Japan Chemotherapeutic Society (Chemotherapy, vol. […], p 76-79 (1981)) the test was carried out using the agar dilution method. After dissolving test samples in distilled water, agar medium containing the test samples was prepared in such a manner that the final concentration became twice serial dilution by pouring serially diluted combination drug solution or a single drug solution into agar medium. As agar medium was used Mueller Hinton Agar medium (MHA). Then, each strain was cultivated over night at 37° C. in an incubator and suspended in buffered saline solution with gelatin (BSG) in the concentration of about 10^6 CFU/ml. The suspension (about 5 μl) containing test strains was inoculated to the medium containing the test samples by Micro Planter.
(§3) When the sample is subjected to sensitivity test, this mixed solution was diluted by twice serial dilution method.
Furthermore, when the drug is solely used, each test sample was used as it is, and diluted by twice serial dilution method from the maximum concentration to the minimum concentration.
(§4) FIC index based on MIC value was calculated. […] Namely, when FIC index calculated by the following formula is equal or less than 1, the enhanced effect of the combination drug in said ratio is considered as positive. When FIC index is over 1, the enhanced effect of the combination drug in said ratio is considered as negative.
(§5) Formula of FIC index: FIC index=(MIC of Drug A in combination/MIC of Drug A alone)+(MIC of Drug B in combination/MIC of Drug B alone) N.C. in tables means being not calculated.

[1] = system: 18 bacteria (27 standard strains); test: Sensitivity test, combination effect over the standard strains; type: cell-based; conditions: in combination with compound 1, standard strains
Procedure: as §1, §2, §3, §4, §5

[2] = ATCC9341, drug alone, read-out: MIC alone

SMILES | MIC (M. luteus ATCC9341; ATCC9341, Concomitant (CAZ:SM = 1:1), read-out: MIC concomitant) [µg/mL] | MIC (M. luteus ATCC9341; [2]) [µg/mL] | combination effect [1] | MIC (M. luteus ATCC9341; ATCC9341, Concomitant (PIPC:SM = 1:1), read-out: MIC concomitant) [µg/mL] | MIC (M. luteus ATCC9341; ATCC9341, Concomitant (PAPM:SM = 1:1), read-out: MIC concomitant) [µg/mL] | MIC (M. luteus ATCC9341; ATCC9341, Concomitant (DRPM:SM = 1:1), read-out: MIC concomitant) [µg/mL]
CC(C)(O/N=C(\C(=O)N[C@@H]1C(=O)N2C(C(=O)[O-])=C(C[n+]3ccccc3)CS[C@H]12)c1csc(N)n1)C(=O)O [CAZ, ceftazidime] | ≤ 0.002 | 1 | antagonism was recognized |  |  | 
CCN1CCN(C(=O)N[C@@H](C(=O)N[C@@H]2C(=O)N3[C@@H]2SC(C)(C)[C@@H]3C(=O)O)c2ccccc2)C(=O)C1=O [PIPC, piperacillin] |  | 0.031 | antagonism was recognized | ≤ 0.002 |  | 
CC(=N)N1CC[C@H](SC2=C(C(=O)O)N3C(=O)[C@H]([C@@H](C)O)[C@H]3C2)C1 [PAPM, panipenem] |  | 0.031 | the combination effect was recognized |  | ≤ 0.002 | 
C[C@@H](O)[C@H]1C(=O)N2C(C(=O)O)=C(S[C@@H]3CN[C@H](CNS(N)(=O)=O)C3)[C@H](C)[C@H]12 [DRPM, doripenem] |  | 0.031 | the combination effect was recognized |  |  | ≤ 0.002

Source: patent publication US20090018111A1, “Novel Antimicrobial Medicament” (priority 2004, published 2009)
